# Test system: Bombyx mori
# Assay: Insecticidal activity against third instar larvae of silkworm assessed per gm diet
# Type: functional
row,SMILES,LD50
1,C=CC(C)(C)N1c2ccccc2[C@]2(O)C[C@@H]3C(=O)N4/C=C\C(C)(C)c5[nH]c6ccccc6c5/C=C\4C(=O)N3[C@H]12 [OKARAMINE A],8 µg
2,CO[C@@H]1[C@]2(O)C(=O)N3/C=C\C(C)(C)c4[nH]c5ccccc5c4/C=C\3C(=O)N2[C@]23[C@H](C)C(C)(C)N2c2ccccc2[C@]13O [OKARAMINE B],0.2 µg
3,CC(C)=CCN1c2ccccc2[C@]2(O)C[C@@H]3C(=O)N4/C=C\C(C)(C)c5[nH]c6ccccc6c5/C=C\4C(=O)N3[C@H]12 [OKARAMINE H],>100 µg
4,CC1(C)/C=C\N2C(=O)[C@H]3C[C@@]4(O)c5ccccc5N[C@H]4N3C(=O)/C2=C/c2c1[nH]c1ccccc21 [OKARAMINE I],>100 µg

# Source: ChEMBL document CHEMBL1158021, “Okaramines H and I, new okaramine congeners, from aspergillus aculeatus” (1999)
